Active and inactive are the calls of the source.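 How the source made its calls: active means compounds giving half or more protection of infected cells from virus-caused growth loss, again on retest; inactive means the rest.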
Test system: CEM cells HIV-1 protection, formazan growth assay
Assay: NCI AIDS Antiviral Assay
Settings: for IC50: measured here: growth of uninfected CEM cells
Procedure, shortened: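 Human CEM cells, uninfected and HIV-1-infected, received five drug concentrations, and growth was read by soluble formazan assay. Compounds giving at least 50% protection were retested; reproducible 100% protection defined confirmed active.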

SMILES | EC50 [µM] | IC50 [µM] | outcome
Cc1ccc2c(c1)C(=C(C#N)C#N)CCCS2(=O)=O | > 200 | > 200 | 
C=C1C(O)C2(O)OCC34C(CC5C(C)=CC(=O)C(O)C5(C)C23)OC(=O)C(OC(=O)C/C=C(\C)CCCCC)C14 (stereo not drawn) | > 47.9 | 0.0151 | 
Cc1ccc(-c2c3nc(c(-c4ccc(C)cc4)c4ccc([nH]4)c(-c4ccc(OCC5COC(C)(C)O5)cc4)c4nc(c(-c5ccc(C)cc5)c5ccc2[nH]5)C=C4)C=C3)cc1 (stereo not drawn) | > 100 | > 100 | 
CCOC(=O)/C(=C\c1ccc([N+](=O)[O-])cc1)P(=O)(OCC)OCC | > 20.4 | 10.2 | 
CC(=O)C(N=Nc1nc2ccc(Cl)cc2[nH]1)C(C)=O | > 200 | 28.8 | 
Cc1cc(C)nc(NC(=O)Nc2cccc(C(F)(F)F)c2)c1 | > 200 | > 200 | 
CCCCC1C(=O)N2c3ccccc3-c3ccccc3N2C1=O |  |  | inactive
NS(=O)(=O)c1ccc(NC(=S)/N=C/C2=C(O)c3ccccc3C2=O)cc1 | > 200 | 52.5 | 
CCOC(=O)C1=C(O)C(=O)c2ccoc2C1=O | > 79.4 | > 79.4 | 
Cc1cc2c(cc1C)[n+](=O)c(C(=O)CC(=O)C(=O)Nc1ccccc1C(C)C)c(C)n2[O-] | > 575 | > 575 | 
CCOC(=O)c1ccc(N=c2sc3ccccc3nc2Nc2ccc(C(=O)OCC)cc2)cc1 | > 200 | > 200 | 
O=C(NCCCCNCCCNC(=O)c1ccccc1)c1ccccc1 | > 200 | > 200 | 
CS1(=O)=NC(=N)c2ccccc21 (stereo not drawn) |  |  | inactive
Cc1cnc([C@H]2CCC3[C@@H]4CC=C5C[C@@H](O)CC[C@]5(C)C4CC[C@@]32C)s1 (stereo partly drawn) | > 67.6 | > 67.6 | 
COc1ccc(/C=C2/C(=O)N(/C=C3\C(=O)Oc4ccccc4C3=O)C(=NC(C)=O)N2C)cc1OC | > 200 | 126 | 
O=[N+]([O-])c1ccc(CS(=O)(=O)c2ccccc2)cc1 |  |  | inactive
COC(=O)c1cc(C(c2cc(C(=O)OC)c(OC)c(Br)c2C)C(Cl)(Cl)Cl)c(C)c(Br)c1OC | > 200 | 25.7 | 
O=C(O)c1c(O)c2cc(Cl)ccc2oc1=O | > 200 | 158 | 
[CH3][Sn]1([CH3])[O]CC(COc2cc(Cl)c(Cl)cc2Cl)[O]1 (stereo not drawn) | > 24 | 15.5 | 
CC(C)(C)C1COP(=S)(c2ccccc2)OC1 (stereo not drawn) | > 69.2 | > 69.2 | 
c1ccc2c(c1)N=c1ccccc1=P21c2ccccc2Nc2ccccc21 | > 2 | 0.214 | 
Cc1cccc(N(C=O)c2c(O)nc(N)[nH]c2=O)c1 | > 200 | > 200 | 

SMILES | EC50 [µM] | IC50 [µM] | outcome
C1CN2CCO[SiH](O1)OCC2 |  |  | inactive
O=C(CCc1nc(=S)[nH][nH]1)Nc1cc(Cl)ccc1Cl | > 407 | > 407 | 
CSc1cc(-c2ccccn2)nc(-c2ccccn2)c1 | > 2 | 0.269 | 
Cc1[nH]c2cc([N+](=O)[O-])ccc2c1[N+](=O)[O-] |  |  | inactive
CCOC(=O)NC(=O)c1cn(C2OC(CO)C(O)C2O)c(=O)[nH]c1=O (stereo not drawn) | > 692 | > 692 | 
Cc1n(Cc2ccccc2)nc2sc(N)n[n+]12 | > 200 | 64.6 | 
C[n+]1cc2c3c(ccc2c2ccc4cc5c(cc4c21)OCO5)OCO3 | > 1.58 | 0.288 | 
CCCCCCCCCCCCCCCCCCCCCCCCCCCCCC=C(c1cc(Cl)c(O)c(C(=O)O)c1)c1cc(Cl)c(O)c(C(=O)O)c1 | 12.3 | 224 | 
COc1cc2c(cc1OC)[C@@H](C(O)c1ccccc1)NCC2 (stereo partly drawn) |  |  | inactive
O=C1CC(c2c(-c3ccccc3)[nH]c3ccccc23)C(=O)N1 (stereo not drawn) |  |  | inactive
CCOC(=O)c1cn(C)c2c1C(=O)C(C(=O)OCC)CC(=O)N2 (stereo not drawn) | > 288 | 178 | 
COc1ccc2c(c1)CCC1=C2CC(=O)N2CCCCN12 | > 91.2 | > 91.2 | 
O=Cc1[nH]c(=O)[nH]c(=O)c1C(=O)O | > 200 | > 200 | 
N#C/C(=C\NC(=S)Nc1cc(Cl)ccc1Cl)C(=O)c1ccc2ccccc2c1 | > 100 | > 100 | 
C/C(=N\N=C(/[O-])c1ccncc1)c1cccc(/C(C)=N/N=C(\[O-])c2ccncc2)n1.O.[Cu+2] | > 200 | 2.24 | 
Cc1noc(NS(=O)(=O)c2ccc(NC(=O)c3ccc4[nH]c5ccccc5c(=O)c4c3)cc2)c1C | > 200 | 44.7 | 
CCC(c1ccc(Cl)cc1)N1CCC2(CC1)C(=O)NCN2c1ccccc1 (stereo not drawn) | > 200 | > 200 | 
O=C(O)c1ccccc1C(=O)Nn1cnnc1 | > 200 | > 200 | 
CS/C(=C\c1ccc(C(=O)c2ccc(C)cc2)n1C)S(C)=O (stereo not drawn) | > 200 | 12.3 | 
O=C(O)CN(CCN(CC(=O)O)CC(=O)O)CCN(CC(=O)O)CC(=O)O | > 200 | > 200 | 
O=C1Oc2ccccc2C(=O)/C1=C/N1C(=O)CNC1=S | > 200 | > 200 | 
Cc1c(N)c(C#N)c2n(C)c3ncccc3n2c1=O | > 200 | > 200 | 

SMILES | EC50 [µM] | IC50 [µM] | outcome
O=C(O)c1c(O)c2cc([N+](=O)[O-])ccc2oc1=O | > 324 | > 324 | 
Brc1ccc2c(c1)C1(c3cc(Br)ccc3-2)c2cc(Br)ccc2-c2ccc(Br)cc21 | > 40.7 | > 40.7 | 
COC(=O)C1=C(C(=O)OC)P2(C)(C)SC(=S)N2C1(c1ccccc1)c1ccccc1 | > 200 | > 200 | 
O=C1CSCC(=O)O1 | > 1910 | > 1910 | 
COC[C@H](Cc1ccccc1)N=Cc1ccccc1 | > 200 | > 200 | 
O=c1[nH]nc(-c2cccc(Br)c2)[nH]1 | > 200 | > 200 | 
Cc1n[nH]c2ccc(Br)cc2c1=O | > 50.1 | > 50.1 | 
CSC1NNC2(C(=O)N1)c1ccccc1-c1ccccc12 (stereo not drawn) | > 200 | 26.9 | 
O=C(c1ccccc1)C(O)(c1ccccc1)C(c1ccccc1)c1ccccc1 (stereo not drawn) | > 26.3 | > 26.3 | 
O=c1c(F)cn2c(=O)n1CCCCCCCn1c(=O)c(F)cn(c1=O)CCCCCCC2 | > 200 | 155 | 
CCOC(=O)c1c(N)sc2c1CCCC2 | > 200 | 56.2 | 
C/C(=C\C(=O)OCCCCCCCC(=O)NC1CCCNC1=O)C[C@@H]1OC[C@H](C/C=C/[C@@H](C)[C@H](C)O)[C@@H](O)[C@H]1O (stereo partly drawn) |  |  | inactive
CC(=O)OC1CN2CCC1CC2 (stereo not drawn) | > 200 | > 200 | 
O=C1c2ccccc2C(=O)c2sc(Nc3ccc(Cl)cc3)nc21 | > 11 | 4.68 | 
Cc1ccc(N2C(=O)N(c3ccc(C)cc3)C3(Sc4ccccc4N3C)C2=O)cc1 (stereo not drawn) | > 12.6 | > 12.6 | 
CC(C)C1CCC(=O)CC1CCCCC1CC(=O)CC1O[Si](C)(C)C(C)(C)C (stereo not drawn) | > 200 | 7.24 | 
O=C(O)c1cc2c(cc1CC(Cc1ccc3c(c1)CCC3)C(=O)O)CCC2 (stereo not drawn) | > 200 | 105 | 
O=S(O)CCCCCSSSCCCCCS(=O)O |  |  | inactive
COc1ccc(C2=C/C(=C/c3ccc(N(CCC#N)CCC#N)cc3)C(=O)O2)cc1 | > 13.2 | > 13.2 | 
COc1ccc(CCn2cncn2)cc1 | > 1050 | > 1050 | 
Cc1cccc(-c2nc(=S)[nH][nH]2)c1 | > 955 | 417 | 
Cc1ccc(S)c(C(O)(C(F)(F)F)C(F)(F)F)c1 | > 200 | 12 | 

SMILES | EC50 [µM] | IC50 [µM] | outcome
CCSC(=O)NNc1nc2ccccc2s1 | > 200 | 63.1 | 
CCCCCCCCC/C=C(/CC(=O)O)C(=O)O | > 708 | > 708 | 
COC1/C=C/OC2(C)Oc3c(C)c(O)c4c(O)c(c(/C=N/Nc5ncccn5)c(O)c4c3C2=O)NC(=O)C(C)=C/C=C/C(C)C(O)C(C)C(O)C(C)C(OC(C)=O)C1C (stereo not drawn) | > 151 | 9.12 | 
CCCCCCCC1C(C)c2c([nH]c3ccccc23)C2C(=O)N(c3ccc(OC)cc3)C(=O)C21 (stereo not drawn) | > 200 | 10.2 | 
COc1ccc(/C=[N+](\[O-])[C@H](COCc2ccccc2)c2ccccc2)cc1 | > 72.4 | > 72.4 | 
Cc1ccc(NC2=NCCS2)c(C)c1 | > 200 | > 200 | 
CCCCCCCCCCCCCCCCNc1ccn(C2CC(O)C(COC(c3ccccc3)(c3ccccc3)c3ccc(OC)cc3)O2)c(=O)n1 (stereo not drawn) | > 200 | 45.7 | 
CCOC(=O)c1sc2[n+](c1C)C(=O)/C(=C/c1cc(OC)c(OC)c(OC)c1)S2 | > 200 | 12.9 | 
CCOC(=O)/C(O)=C(/C=NC(=S)c1ccncc1)C(=O)OCC | > 200 | > 200 | 
CCOP(=O)(OCC)/C(C#N)=C/c1cnc(C)[nH]1 | > 200 | > 200 | 
CCCc1cc(=O)oc2c3c(ccc12)OC(C)(C)[C@H](OC(=O)C12CCC(C)(C(=O)O1)C2(C)C)[C@@H]3OC(=O)C12CCC(C)(C(=O)O1)C2(C)C (stereo partly drawn) | 0.891 | > 200 | 
Cc1cc(OCC(=O)N/N=C/C(Br)=C/c2ccccc2)nc(SCC(=O)N/N=C/C(Br)=C/c2ccccc2)n1 | > 200 | 17.8 | 
CN1CN(c2ccccc2)C2(CCN(CCc3cc4ccccc4o3)CC2)C1=O | > 200 | 8.13 | 
CC(OC(C)(C)C)[C@H](NC(=O)OC(C)(C)C)C(=O)O (stereo partly drawn) | > 275 | > 275 | 
Nc1nc([O-])c2c(n1)[n+](C1OC(CO)C(O)C1O)cn2CCO (stereo not drawn) | > 759 | > 759 | 
CC(=O)Oc1ccc2c(c1)c1c(=O)oc(N(C)C)nc1n2Cc1ccccc1 | > 200 | 120 | 
CN(C)/N=C(/SS/C(=N/N(C)C)C(F)(F)F)C(F)(F)F |  |  | inactive
O=C1C2C3C=C4c5ccccc5N(c5ccccc5)C4(C2C(=O)N1c1ccc(Br)cc1)[C@H]1C(=O)N(c2ccc(Br)cc2)C(=O)[C@@H]31 (stereo partly drawn) | > 5.25 | > 5.25 | 
CC(=O)Nc1ccc(C2CC(c3ccc([N+](=O)[O-])cc3)=Nc3ccccc3S2=O)cc1 (stereo not drawn) | > 3.31 | > 3.31 | 
CN(C)P(=O)(N(C)C)N(C)C.[CH3][Sn]([CH3])([Cl])[Cl] |  |  | inactive
CCC1(OC(C)=O)C(=O)OCc2c1cc1n(c2=O)Cc2cc3ccccc3nc2-1 (stereo not drawn) | > 10 | 0.129 | 
